Several values for one entry are separate records, joined by “and”; a condition that tells them apart may be missing. Equal values may be shown once. Numbers after ± are expanded uncertainties.
Experiments:
[1] = activity coefficient (dimensionless); of the first substance listed, at infinite dilution; xn = mol fraction of the nth substance listed; conditions: Liquid, Chromatography, x1 = 0
[2] = 298.15 K; 101.33 kPa; Liquid; Vibrating tube method

For C=CCCCCCCCC [1-decene] + CCCCCCCC[n+]1ccn(C)c1.F[P-](F)(F)(F)(F)F, the activity coefficient ([1]; 313.15 K) was 16.3 and 16.7, the activity coefficient ([1]; 323.15 K) was 16.3 and 16.5 and the activity coefficient ([1]; 333.15 K) was 16.3 and 16.4.
With C=CCCCCC [1-heptene] + CCCCCCCC[n+]1ccn(C)c1.F[P-](F)(F)(F)(F)F the activity coefficient ([1]; 313.15 K) was 8.2 ± 0.7, the activity coefficient ([1]; 323.15 K) was 8.1 and 8.2 and the activity coefficient ([1]; 333.15 K) was 8 and 8.1.
In the case of C#CCCCCC [1-heptyne] + CCCCCCCC[n+]1ccn(C)c1.F[P-](F)(F)(F)(F)F, the activity coefficient ([1]; 313.15 K) is reported as 2.81 and 2.93, the activity coefficient ([1]; 323.15 K) is reported as 2.98 and 2.87 and the activity coefficient ([1]; 333.15 K) is reported as 2.93 and 3.04.
In the case of C#CCCCC [1-hexyne] + CCCCCCCC[n+]1ccn(C)c1.F[P-](F)(F)(F)(F)F, the activity coefficient ([1]; 313.15 K) is reported as 2.24 and 2.33, the activity coefficient ([1]; 323.15 K) is reported as 2.38 and 2.3 and the activity coefficient ([1]; 333.15 K) is reported as 2.34 and 2.43.
For C=CCCCCCCC [1-nonene] + CCCCCCCC[n+]1ccn(C)c1.F[P-](F)(F)(F)(F)F, the activity coefficient ([1]; 313.15 K) was 14.2 and 13.5, the activity coefficient ([1]; 323.15 K) was 13.3 and 13.9 and the activity coefficient ([1]; 333.15 K) was 13.5 and 13.3.
With CCCCCCCC[n+]1ccn(C)c1.F[P-](F)(F)(F)(F)F [1-octyl-3-methylimidazolium hexafluorophosphate] the mass density [2] was 1238.51 ± 10 kg/m3.
In the case of C#CCCCCCC [1-octyne] + CCCCCCCC[n+]1ccn(C)c1.F[P-](F)(F)(F)(F)F, the activity coefficient ([1]; 313.15 K) is reported as 3.77 and 3.9, the activity coefficient ([1]; 323.15 K) is reported as 3.94 and 3.87 and the activity coefficient ([1]; 333.15 K) is reported as 3.94 and 4.03.
In the case of C#CCCC [1-pentyne] + CCCCCCCC[n+]1ccn(C)c1.F[P-](F)(F)(F)(F)F, the activity coefficient ([1]; 313.15 K) is reported as 1.7 and 1.72, the activity coefficient ([1]; 323.15 K) is reported as 1.79 and 1.75 and the activity coefficient ([1]; 333.15 K) is reported as 1.78 and 1.84.
For c1ccccc1 [benzene] + CCCCCCCC[n+]1ccn(C)c1.F[P-](F)(F)(F)(F)F, the activity coefficient ([1]; 313.15 K) was 0.96 and 0.97, the activity coefficient ([1]; 323.15 K) was 0.99 ± 0.08 and the activity coefficient ([1]; 333.15 K) was 1 and 1.03.
For C1CCCCCC1 [cycloheptane] + CCCCCCCC[n+]1ccn(C)c1.F[P-](F)(F)(F)(F)F, the activity coefficient ([1]; 313.15 K) was 8.2 and 8, the activity coefficient ([1]; 323.15 K) was 7.74 and 7.97 and the activity coefficient ([1]; 333.15 K) was 7.63 and 7.75.
With C1CCCCC1 [cyclohexane] + CCCCCCCC[n+]1ccn(C)c1.F[P-](F)(F)(F)(F)F the activity coefficient ([1]; 313.15 K) was 6.7 and 6.82, the activity coefficient ([1]; 323.15 K) was 6.61 and 6.56 and the activity coefficient ([1]; 333.15 K) was 6.29 and 6.3.
With C1CCCCCCC1 [cyclooctane] + CCCCCCCC[n+]1ccn(C)c1.F[P-](F)(F)(F)(F)F the activity coefficient ([1]; 313.15 K) was 10.2 and 9.9, the activity coefficient ([1]; 323.15 K) was 9.5 and 9.9 and the activity coefficient ([1]; 333.15 K) was 9.4 ± 0.8.
With C1CCCC1 [cyclopentane] + CCCCCCCC[n+]1ccn(C)c1.F[P-](F)(F)(F)(F)F the activity coefficient ([1]; 313.15 K) was 5.02 and 5.06, the activity coefficient ([1]; 323.15 K) was 4.95 and 4.92 and the activity coefficient ([1]; 333.15 K) was 4.77 and 4.79.
For CCCCCCCCCC [decane] + CCCCCCCC[n+]1ccn(C)c1.F[P-](F)(F)(F)(F)F, the activity coefficient ([1]; 313.15 K) was 31.8 and 31.7, the activity coefficient ([1]; 323.15 K) was 30.8 and 30.3 and the activity coefficient ([1]; 333.15 K) was 28.2 and 29.
In the case of CCO [ethanol] + CCCCCCCC[n+]1ccn(C)c1.F[P-](F)(F)(F)(F)F, the activity coefficient ([1]; 313.15 K) is reported as 2.22 and 2.32, the activity coefficient ([1]; 323.15 K) is reported as 2.05 and 2 and the activity coefficient ([1]; 333.15 K) is reported as 1.79 and 1.82.
For CCc1ccccc1 [ethylbenzene] + CCCCCCCC[n+]1ccn(C)c1.F[P-](F)(F)(F)(F)F, the activity coefficient ([1]; 313.15 K) was 1.95 ± 0.17, the activity coefficient ([1]; 323.15 K) was 1.98 ± 0.17 and the activity coefficient ([1]; 333.15 K) was 1.99 and 2.02.
For CCCCCCC [heptane] + CCCCCCCC[n+]1ccn(C)c1.F[P-](F)(F)(F)(F)F, the activity coefficient ([1]; 313.15 K) was 14.1 and 14.3, the activity coefficient ([1]; 323.15 K) was 13.6 and 13.8 and the activity coefficient ([1]; 333.15 K) was 13.2 ± 1.1.
In the case of C=CCCCC [hex-1-ene] + CCCCCCCC[n+]1ccn(C)c1.F[P-](F)(F)(F)(F)F, the activity coefficient ([1]; 313.15 K) is reported as 6.2 and 6.5, the activity coefficient ([1]; 323.15 K) is reported as 6.29 and 6.15 and the activity coefficient ([1]; 333.15 K) is reported as 6.1 and 6.15.
With CCCCCC [hexane] + CCCCCCCC[n+]1ccn(C)c1.F[P-](F)(F)(F)(F)F the activity coefficient ([1]; 313.15 K) was 10.8 and 11, the activity coefficient ([1]; 323.15 K) was 10.7 and 10.6 and the activity coefficient ([1]; 333.15 K) was 10.2 and 10.4.
In the case of CO [methanol] + CCCCCCCC[n+]1ccn(C)c1.F[P-](F)(F)(F)(F)F, the activity coefficient ([1]; 313.15 K) is reported as 1.77 and 1.85, the activity coefficient ([1]; 323.15 K) is reported as 1.65 and 1.61 and the activity coefficient ([1]; 333.15 K) is reported as 1.46 and 1.5.
For C=CCCCCCC [oct-1-ene] + CCCCCCCC[n+]1ccn(C)c1.F[P-](F)(F)(F)(F)F, the activity coefficient ([1]; 313.15 K) was 10.8 and 10.3, the activity coefficient ([1]; 323.15 K) was 10.2 and 10.7 and the activity coefficient ([1]; 333.15 K) was 10.4 and 10.3.
For CCCCCCCC [octane] + CCCCCCCC[n+]1ccn(C)c1.F[P-](F)(F)(F)(F)F, the activity coefficient ([1]; 313.15 K) was 18.3 and 17.6, the activity coefficient ([1]; 323.15 K) was 17.1 and 17.9 and the activity coefficient ([1]; 333.15 K) was 17 and 16.9.
For CCCCC [pentane] + CCCCCCCC[n+]1ccn(C)c1.F[P-](F)(F)(F)(F)F, the activity coefficient ([1]; 313.15 K) was 8.2 and 8.3, the activity coefficient ([1]; 323.15 K) was 8.1 ± 0.7 and the activity coefficient ([1]; 333.15 K) was 7.8 and 8.
In the case of Cc1ccccc1 [toluene] + CCCCCCCC[n+]1ccn(C)c1.F[P-](F)(F)(F)(F)F, the activity coefficient ([1]; 313.15 K) is reported as 1.31 and 1.36, the activity coefficient ([1]; 323.15 K) is reported as 1.37 and 1.35 and the activity coefficient ([1]; 333.15 K) is reported as 1.37 and 1.41.
For CCCCCCCCCCC [undecane] + CCCCCCCC[n+]1ccn(C)c1.F[P-](F)(F)(F)(F)F, the activity coefficient ([1]; 313.15 K) was 42.1 and 41.3, the activity coefficient ([1]; 323.15 K) was 40.1 and 39.6 and the activity coefficient ([1]; 333.15 K) was 36.5 and 37.
